Experimental data as given in patent publication US8916526B2, “Flavanone derivative” (National University Corporation Okayama University, priority 2009, dated 2014).
Converted amounts (≈) assume the structure as drawn. Like-named read-outs stand apart in the source and are kept apart here.

What was measured:
VRE NCTC12201 = experiment: In vitro infectivity assay (MIC), broth dilution, Exp. Ex. 1-1; type: cell-based, enterococci; conditions: for MIC: Enterococcus, read-out: MIC VRE NCTC12201
Description: (§1) The antibacterial activities were measured based on broth dilution techniques of international standards (Clinical Laboratory Standards Institute: CLSI). The activities were shown by minimum inhibitory concentrations (MICs) determined by inoculating the above-mentioned strains at a concentration of about 10^5 […] into Mueller-Hinton broth (manufactured by Difco) containing 0.85% NaCl in 96-well microplates and incubating the plates at 35° C. for 24 hours. Measurement was carried out three times.
(§2) The antibacterial activities of the compounds of the present invention against various strains such as methicillin-resistant Staphylococcus aureus (MRSA), vancomycin intermediate-resistant Staphylococcus aureus (VISA), methicillin-sensitive Staphylococcus aureus (MSSA), and vancomycin-resistant enterococci (VRE) were examined. Of the bacteria used in MIC measurement in this test example, clinical bacteria of MRSA (OM481 strain and OM584 strain) were supplied from Okayama University Hospital (Japan). An MRSA strain N315, a vancomycin intermediate-resistant Staphylococcus aureus (VISA) strain Mu50, and a methicillin-sensitive Staphylococcus aureus (MSSA) strain FDA 209P were used as controls. Vancomycin-resistant enterococcus (VRE) strains NCTC 12201 and FN-1 were supplied from the National Institute of Infectious Disease (Japan).

VRE FN-1 = experiment: as above; type: cell-based, enterococci; conditions: for MIC: Enterococcus, read-out: MIC VRE FN-1
Description: as §1, §2

[1] = system: various strains such as MRSA, VISA, MSSA and VRE; experiment: In vitro infectivity assay (MIC), Exp. Ex. 1-1, strains taken together; type: cell-based, Staphylococcus aureus, enterococci; conditions: summary of Table 1
Description: as §1, §2

[2] = biological target: T1, DNA gyrase of Escherichia coli (Escherichia coli, UniProt P0AES4+P0AES6); experiment: DNA gyrase inhibition (supercoiling assay kit), Exp. Ex. 1-2; type: biochemical; conditions: for Gyrase inhibitory activity IC50 / IC50: E. coli DNA gyrase supercoiling, relaxed pBR322, 37° C., 30 minutes; for IC50: read-out: Gyrase inhibitory activity IC50 (converted)
T1 construct: purchased John Innes Enterprises #K0001
Description: As a kit for measurement of DNA gyrase of Escherichia coli, a product purchased from John Innes Enterprises (Gyrase Supercoiling assay kit #K0001) was used. Relaxed DNA was modified with gyrase into supercoiled DNA, and reaction products were separated by electrophoresis depending on the sizes of the molecular weights to examine anti-gyrase effects (IC50). One unit (1 U) of DNA gyrase and […] of relaxed pBR322 DNA were added to […] of the reaction solution, and the mixture was allowed to react at 37° C. for 30 minutes in the presence of 35 mM Tris-HCl (pH 7.5), 24 mM KCl, 4 mM MgCl2, 2 mM DTT, 1.8 mM spermidine, 1 mM ATP, 6.5% (w/v) glycerol, and 0.1 mg/ml BSA. The reactions were stopped using […] of a reaction stop solution (40% sucrose, 100 mM Tris-HCl (pH 7.5), 1 mM EDTA, 0.5 mg/ml bromophenol blue).

MRSA OM481 = experiment: In vitro infectivity assay (MIC), broth dilution, Exp. Ex. 1-1; type: cell-based, Staphylococcus aureus; conditions: for MIC: Staphylococcus aureus, read-out: MIC MRSA OM481
Description: as §1, §2

MSSA FDA 209P = experiment: as above; type: cell-based, Staphylococcus aureus; conditions: for MIC: Staphylococcus aureus, read-out: MIC MSS 209P
Description: as §1, §2

VISA Mu50 = experiment: as above; type: cell-based, Staphylococcus aureus; conditions: for MIC: Staphylococcus aureus, read-out: MIC VISA Mu50
Description: as §1, §2

MRSA N315 = experiment: as above; type: cell-based, Staphylococcus aureus; conditions: for MIC: Staphylococcus aureus, read-out: MIC MRSA N315
Description: as §1, §2

MRSA OM58 = experiment: as above; type: cell-based, Staphylococcus aureus; conditions: for MIC: Staphylococcus aureus, read-out: MIC MRSA OM58
Description: as §1, §2

[3] = Acute toxicity evaluation experiment; conditions: ICR mice, observed over 7 days, four mice
Description: (§4) An acute toxicity test of the compound of the present invention was carried out using ICR mice as experimental animals.

[4] = mouse, in vivo, 10 mg/kg
Description: as §4

[5] = system: Vancomycin-resistant enterococci NCTC 12201; experiment: In vitro infectivity assay (MIC), Exp. Ex. 2-1; type: cell-based; conditions: Enterococcus, NCTC 12201 / VRE, 24 h, read-out: MIC VRE NCTC 12201
Outline: (§3)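 CLSI broth dilution; Mueller-Hinton + 0.85% NaCl; inoculum ~10^5 CUF/[…]; 35° C, 24 h; MIC read, n=3.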

[6] = system: Vancomycin intermediate-resistant Staphylococcus aureus Mu50; experiment: In vitro infectivity assay (MIC), Exp. Ex. 2-1; type: cell-based; conditions: Staphylococcus aureus, VISA, 24 h, read-out: MIC VISA Mu50
Outline: as §3

[7] = system: Vancomycin-resistant enterococci FN-1; experiment: In vitro infectivity assay (MIC), Exp. Ex. 2-1; type: cell-based; conditions: Enterococcus, VRE, 24 h, read-out: MIC VRE FN-1
Outline: as §3

[8] = system: Methicillin-resistant S. aureus N315; experiment: In vitro infectivity assay (MIC), Exp. Ex. 2-1; type: cell-based, Staphylococcus aureus; conditions: Staphylococcus aureus, MRSA, 24 h, read-out: MIC MRSA N315
Outline: as §3

[9] = system: Methicillin sensitive S. aureus 209P; experiment: In vitro infectivity assay (MIC), Exp. Ex. 2-1; type: cell-based, Staphylococcus aureus; conditions: Staphylococcus aureus, 209P / MSSA, 24 h, read-out: MIC MSSA 209P
Outline: as §3

[10] = system: Methicillin-resistant S. aureus OM481; experiment: In vitro infectivity assay (MIC), Exp. Ex. 2-1; type: cell-based, Staphylococcus aureus; conditions: Staphylococcus aureus, MRSA, 24 h, read-out: MIC MRSA OM481
Outline: as §3

[11] = system: Methicillin-resistant S. aureus OM584; experiment: In vitro infectivity assay (MIC), Exp. Ex. 2-1; type: cell-based, Staphylococcus aureus; conditions: Staphylococcus aureus, MRSA, 24 h, read-out: MIC MRSA OM584
Outline: as §3

[12] = system: Methicillin-resistant S. aureus COL; experiment: In vitro infectivity assay (MIC), Exp. Ex. 2-1; type: cell-based; conditions: Staphylococcus aureus, MRSA, 24 h, read-out: MIC MRSA COL
[13] = system: Streptococcus pneumoniae R6; experiment: In vitro infectivity assay (MIC), Exp. Ex. 2-1; type: cell-based; conditions: Streptococcus pneumoniae, R6, 24 h, read-out: MIC S. Pneumoniae R6
[14] = VRE NCTC12201, Mueller-Hinton broth, 35° C., 24 hours
[15] = VRE FN-1, Mueller-Hinton broth, 35° C., 24 hours
[16] = MRSA OM481, Mueller-Hinton broth, 35° C., 24 hours
[17] = MSSA FDA 209P, Mueller-Hinton broth, 35° C., 24 hours
[18] = VISA Mu50, Mueller-Hinton broth, 35° C., 24 hours
[19] = MRSA N315, Mueller-Hinton broth, 35° C., 24 hours
[20] = MRSA OM58, Mueller-Hinton broth, 35° C., 24 hours

T1 sequence (P0AES4 whole entry, one chain of several): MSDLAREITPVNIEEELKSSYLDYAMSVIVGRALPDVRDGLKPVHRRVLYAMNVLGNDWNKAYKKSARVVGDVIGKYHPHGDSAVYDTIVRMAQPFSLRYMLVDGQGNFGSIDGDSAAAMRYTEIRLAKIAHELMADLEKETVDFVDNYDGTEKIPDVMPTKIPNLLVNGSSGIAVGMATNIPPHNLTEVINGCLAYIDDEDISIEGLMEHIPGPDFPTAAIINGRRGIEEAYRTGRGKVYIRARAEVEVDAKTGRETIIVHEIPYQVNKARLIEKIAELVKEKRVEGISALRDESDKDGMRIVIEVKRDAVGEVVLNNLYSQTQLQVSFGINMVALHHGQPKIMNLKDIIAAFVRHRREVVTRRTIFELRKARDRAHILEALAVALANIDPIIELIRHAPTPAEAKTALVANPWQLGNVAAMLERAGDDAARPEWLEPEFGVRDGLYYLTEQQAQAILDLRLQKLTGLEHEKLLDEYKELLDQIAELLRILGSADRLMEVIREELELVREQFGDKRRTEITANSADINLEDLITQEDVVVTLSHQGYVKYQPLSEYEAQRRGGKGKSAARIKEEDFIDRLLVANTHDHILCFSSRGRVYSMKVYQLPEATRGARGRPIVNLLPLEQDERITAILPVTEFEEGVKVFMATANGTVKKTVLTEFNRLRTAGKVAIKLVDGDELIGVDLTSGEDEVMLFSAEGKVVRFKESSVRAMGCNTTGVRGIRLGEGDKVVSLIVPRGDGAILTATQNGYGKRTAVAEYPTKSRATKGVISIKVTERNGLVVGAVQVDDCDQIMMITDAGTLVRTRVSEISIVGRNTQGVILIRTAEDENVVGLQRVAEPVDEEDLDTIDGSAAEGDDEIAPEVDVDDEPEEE

Molecule | MIC VRE NCTC 12201 (VRE NCTC12201; [14]) [µg/mL] | MIC VRE FN-1 (VRE FN-1; [15]) [µg/mL] | Antibacterial activities against the vancomycin resistant bacteria such as VRE and VISA (in words) [1] | Gyrase inhibitory activity IC50 [2] [µg/mL] | MIC MRSA OM481 (MRSA OM481; [16]) [µg/mL] | MIC MSS 209P (MSSA FDA 209P; [17]) [µg/mL] | MIC VISA Mu50 (VISA Mu50; [18]) [µg/mL] | MIC MRSA N315 (MRSA N315; [19]) [µg/mL] | MIC MRSA OM58 (MRSA OM58; [20]) [µg/mL] | MIC (VRE NCTC12201; [14]) [µg/mL] | MIC (VRE FN-1; [15]) [µg/mL] | IC50 [2] [µM] | MIC (MRSA OM481; [16]) [µg/mL] | MIC (MSSA FDA 209P; [17]) [µg/mL] | MIC (VISA Mu50; [18]) [µg/mL] | MIC (MRSA N315; [19]) [µg/mL] | MIC (MRSA OM58; [20]) [µg/mL] | melting point [°C] | also measured
Cc1ccc(CCC(=O)O[C@H]2[C@H](Oc3c(-c4ccc(O)c(O)c4)oc4cc(O)cc(O)c4c3=O)O[C@H](CO)[C@@H](O)[C@@H]2OC(=O)CCc2ccc(C)cc2)cc1 [Compound 15c, 2-(3′,4′-Dihydroxy)-5,7-dihydroxy-3-β-D-(2″,3″-di-p-methylphenylethylcarboxy)glucosyl-4H-chromen-4-one] | 4 (≈ 5.29 µM) | 2 (≈ 2.64 µM) | strong antibacterial activities | 3.50 | 2 (≈ 2.64 µM) | 1 (≈ 1.32 µM) | 1 (≈ 1.32 µM) | 1 (≈ 1.32 µM) | 2 (≈ 2.64 µM) | – | – | – | – | – | – | – | – | – | –
CCCc1ccc(C(=O)O[C@H]2[C@H](Oc3c(-c4ccc(O)c(O)c4)oc4cc(O)cc(O)c4c3=O)O[C@H](CO)[C@@H](O)[C@@H]2OC(=O)c2ccc(CCC)cc2)cc1 [Compound 15f, 2-(3′,4′-Dihydroxy)-5,7-dihydroxy-3-β-D-(2″,3″-di-p-propylbenzoyloxy)glucosyl-4H-chromen-4-one] | – | – | – | – | – | – | – | – | – | 8 (≈ 10.6 µM) | 8 (≈ 10.6 µM) | 13.2 | 32 (≈ 42.3 µM) | 8 (≈ 10.6 µM) | 16 (≈ 21.1 µM) | 8 (≈ 10.6 µM) | 32 (≈ 42.3 µM) | 152 to 153 | –
O=C(CCc1ccc(F)cc1)O[C@H]1[C@H](Oc2c(-c3ccc(O)c(O)c3)oc3cc(O)cc(O)c3c2=O)O[C@H](CO)[C@@H](O)[C@@H]1OC(=O)CCc1ccc(F)cc1 [Compound 15d, 2-(3′,4′-Dihydroxy)-5,7-dihydroxy-3-β-D-(2″,3″-di-p-flurophenylethylcarboxy)glucosyl-4H-chromen-4-one] | 1 (≈ 1.31 µM) | 1 (≈ 1.31 µM) | strong antibacterial activities | 0.22 | 2 (≈ 2.62 µM) | 0.25 (≈ 0.327 µM) | 1 (≈ 1.31 µM) | 0.25 (≈ 0.327 µM) | 2 (≈ 2.62 µM) | – | – | – | – | – | – | – | – | – | Mortality ([3]; 10 mg/kg for 4 consecutive days): All the mice were not dead until day 7; Mortality ([3]; 100 mg/kg for 4 consecutive days): all the mice in the group were dead on days 5 to 7 after administration; Changes in the body weights [4]: the body weights were slightly reduced from the day after administration, but the body weights of all the four mice were recovered from about day 5 after administration; Gyrase inhibitory effect compared with norfloxacin (in words) ([2]; summary of Table 2): inhibitory effect equal to or greater than that of an existing gyrase inhibitor such as norfloxacin
2-(3′,4′-Dihydroxy)-5,7-dihydroxy-3-β-D-(2″,3″-di-p-flurobenzyloxy)glucosyl-4H-chromen-4-one [Compound 15h] | 8 | 8 | strong antibacterial activities | – | 8 | 2 | 2 | 2 | 8 | – | – | – | – | – | – | – | – | – | –
CN[C@H](CC(C)C)C(=O)N[C@H]1C(=O)N[C@@H](CC(N)=O)C(=O)N[C@H]2C(=O)N[C@H]3C(=O)N[C@H](C(=O)N[C@H](C(=O)O)c4cc(O)cc(O)c4-c4cc3ccc4O)[C@H](O)c3ccc(c(Cl)c3)Oc3cc2cc(c3O[C@@H]2O[C@H](CO)[C@@H](O)[C@H](O)[C@H]2O[C@H]2C[C@](C)(N)[C@H](O)[C@H](C)O2)Oc2ccc(cc2Cl)[C@H]1O [Vancomycin, vancomycin, reference compound] | – | – | – | – | – | – | – | – | – | – | – | – | – | – | – | – | – | – | MIC [5]: > 128 µg/mL; MIC [6]: 8 µg/mL (≈ 5.52 µM); MIC [7]: > 128 µg/mL; MIC (VRE NCTC12201; 24 h): > 128 µg/mL; MIC (VRE FN-1; VRE, 24 h): > 128 µg/mL; MIC [8]: 0.25 µg/mL (≈ 0.173 µM); MIC [9]: 0.25 µg/mL (≈ 0.173 µM); MIC [10]: 0.25 µg/mL (≈ 0.173 µM); MIC [11]: 0.25 µg/mL (≈ 0.173 µM); MIC [12]: 0.25 µg/mL (≈ 0.173 µM); MIC [13]: 0.25 µg/mL (≈ 0.173 µM); MIC (MRSA OM481; MRSA, 24 h): 0.25 µg/mL (≈ 0.173 µM); MIC (MSSA FDA 209P; 24 h): 0.25 µg/mL (≈ 0.173 µM); MIC (VISA Mu50; VISA, 24 h): 8 µg/mL (≈ 5.52 µM); MIC (MRSA N315; MRSA, 24 h): 0.25 µg/mL (≈ 0.173 µM); MIC (MRSA OM58; MRSA, 24 h): 0.25 µg/mL (≈ 0.173 µM)
CCOc1ccc(C(=O)O[C@H]2[C@H](Oc3c(-c4ccc(O)c(O)c4)oc4cc(O)cc(O)c4c3=O)O[C@H](CO)[C@@H](O)[C@@H]2OC(=O)c2ccc(OCC)cc2)cc1 [Compound 15e, 2-(3′,4′-Dihydroxy)-5,7-dihydroxy-3-β-D-(2″,3″-di-p-ethoxybenzoyloxy)glucosyl-4H-chromen-4-one] | – | – | – | – | – | – | – | – | – | 16 (≈ 21 µM) | 16 (≈ 21 µM) | 10.8 | 32 (≈ 42.1 µM) | 8 (≈ 10.5 µM) | 16 (≈ 21 µM) | 8 (≈ 10.5 µM) | 32 (≈ 42.1 µM) | 122 to 123 | –
